We go through one substance from patent US20030032602A1, “Methods and compositions for collagen homeostasis” (priority 2001, published 2003).

For this test, the system named is collagenase from Clostridium histolyticum (EC 3.4.24.3). The test can be described thus: Inhibition of collagenase with fluorophor labeled Gelatin-FL, Collagen I-FL and Collagen IV-FL as substrate. Format: biochemical. Conditions: substrates collagen I, collagen IV and denatured collagen (gelatin), fluorescence-labeled; incubation 60 min at 37° C.; FIGS. 1A-1C. On the procedure:
The following examples have been provided to illustrate various aspects of the inventive subject matter. More particularly, all examples employed commercially available collagenase from Clostridium histolyticum (EC 3.4.24.3; Fluka Chemie AG, Switzerland) and commercially available collagen-I and collagen-IV (Molecular Probes, OR, USA).
Inhibition of collagenase from Clostridium histolyticum was determined using fluorophor labeled Gelatin-FL, Collagen I-FL and Collagen IV-FL as substrate. Negative control was Mg ascorbyl-2-phosphate (MAP), and exemplary boron-containing compounds were AB(F-D) and AB (V-E), which represented two different batches of potassium ascorbato-borates. The assay was performed under standard conditions with incubation and of substrate for 60 min at 37° C. and fluorescence was measured in a standard fluorometer. The results of the inhibition experiments are depicted in FIGS. 1A-1C. With respect to the inhibitors, the first column represents the negative control MAP, while the second and third columns represent exemplary boron-containing compounds AB(F-D) (potassium ascorbato-borate) and AB(V-E) (potassium ascorbato-borate). […] Moreover, additional experiments (data not shown) confirmed the inhibitory character of numerous other boron-containing compounds, and especially boron-containing compounds in which borate is complexed by one or more ligands.

Regarding potassium ascorbato-borate [AB(F-D)], the inhibition of collagenase result is “specific inhibitory compounds for collagenase”.
